We go through 9 compounds from patent US20230011869A1 (Hoffmann-La Roche Inc., priority 2018, published 2023).

Structures can show the parent of a compound that is named as a salt. Where two headings read alike, the source gives them in different places.

This assay relates to Acinetobacter baumannii ATCC17978. The experiment in a line: Antimicrobial susceptibility testing: 90% growth inhibitory concentration (IC90) determination, Iso-Sensitest broth. The class given is cell-based. Put shortly: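 A. baumannii ATCC17978 grown in Iso-Sensitest broth across 10 compound concentrations at 35±2 °C.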
Setting [1] is: Acinetobacter baumannii, ATCC17978, 16 h, read-out: ATCC17978 IC90, 90% growth inhibitory concentration, Acinetobacter baumannii ATCC17978, Iso-Sensitest broth, OD 600 nm over 16 h.
Setting [2] is: 90% growth inhibitory concentration, Acinetobacter baumannii ATCC17978, Iso-Sensitest broth, OD 600 nm over 16 h, read-out: ATCC17978 IC90.

With `COc1ccc(-c2cnc3c(Nc4ccc(C(=O)N5CCC(C(=O)NCC6CNC6)CC5)c(C)c4)nccn23)cc1F` [Example 328, N-(azetidin-3-ylmethyl)-1-[4-[[3-(3-fluoro-4-methoxyphenyl)imidazo[1,2-a]pyrazin-8-yl]amino]-2-methylbenzoyl]piperidine-4-carboxamide; hydrochloride], the IC90 under setting [1] was determined as 390 nM.
For the compound `Cc1cc(Nc2nccn3c(-c4ccc(OCC#N)c(F)c4Cl)cnc23)ccc1C(=O)N1CCC(C(=O)OC[C@@H]2CNCCN2)CC1` [Example 470, formic acid; [(2S)-piperazin-2-yl]methyl 1-[4-[[3-[2-chloro-4-(cyanomethoxy)-3-fluorophenyl]imidazo[1,2-a]pyrazin-8-yl]amino]-2-methylbenzoyl]piperidine-4-carboxylate], under setting [1], the IC90 was determined as 92 nM.
On the same count and under the same terms, then `COc1ccc(-c2cnc3c(Nc4ccc(C(=O)N5CCN(C(=O)[C@H](CCN)NC(=O)CC[C@H](N)C(=O)O)CC5)c(C)c4)nccn23)c(F)c1F` [Example 532, (2S)-2-amino-5-[[(2S)-4-amino-1-[4-[4-[[3-(2,3-difluoro-4-methoxyphenyl)imidazo[1,2-a]pyrazin-8-yl]amino]-2-methylbenzoyl]piperazin-1-yl]-1-oxobutan-2-yl]amino]-5-oxopentanoic acid; hydrochloride], with 1200 nM.
As for `COc1ccc(-c2cnc3c(Nc4ccc(C(=O)N5CCC(C(=O)NCCCN(C)C)CC5)c(C)c4)nccn23)cc1F` [Example 46, N-[3-(dimethylamino)propyl]-1-[4-[[3-(3-fluoro-4-methoxyphenyl)imidazo[1,2-a]pyrazin-8-yl]amino]-2-methylbenzoyl]piperidine-4-carboxamide], under setting [2], the IC90 was determined as 200 nM.
Turning to `Cc1cc(Nc2nccn3c(-c4ccc(OC(F)F)cc4)cnc23)ccc1C(=O)N1CCC(C(=O)N2C[C@@H](O)[C@@H](O)[C@@H](O)C2)CC1` [Example 326, [4-[[3-[4-(difluoromethoxy)phenyl]imi-dazo[1,2-a]pyrazin-8-yl]amino]-2-methylphenyl]-[4-[rac-(3R,5S)-3,4,5-trihydroxypiperidine-1-carbonyl]piperidin-1-yl]methanone], the IC90 under setting [1] turned out to be 360 nM.
Consider `Cc1cc(Nc2nccn3c(-c4ccc(OC(C)C#N)c(F)c4F)cnc23)ccc1C(=O)N1CCC(CN)CC1` (stereo not drawn) [Example 119, 2-[4-[8-[4-[4-(aminomethyl)piperidine-1-carbonyl]-3-methyl-anilino]imidazo[1,2-a]pyrazin-3-yl]-2,3-difluoro-phenoxy]propanenitrile;2,2,2-trifluoroacetic acid], for which the IC90 under setting [2] was 400 nM.
Consider `COc1ccc(-c2cnc3c(Nc4ccc(C(=O)N5CC6(CCN6)C5)c(C)c4)nccn23)cc1F` [Example 421, 1,6-diazaspiro[3.3]heptan-6-yl-[4-[[3-(3-fluoro-4-methoxyphenyl)imidazo[1,2-a]pyrazin-8-yl]amino]-2-methylphenyl]methanone; 2,2,2-trifluoroacetic acid], for which the IC90 under setting [1] came to 1100 nM.
Take `COc1ccc(-c2cnc3c(Nc4ccc(C(=O)N5CCN(C(=O)[C@@H]6C[C@@H](OC(=O)[C@@H](N)[C@@H](C)O)CN6)CC5)c(C)c4)nccn23)c(F)c1F` [Example 549, [(3R,5S)-5-[4-[4-[[3-(2,3-difluoro-4-methoxy-phenyl)imidazo[1,2-a]pyrazin-8-yl]amino]-2-methyl-benzoyl]piperazine-1-carbonyl]pyrrolidin-3-yl] (2S,3R)-2-amino-3-hydroxy-butanoate formate]: the IC90 under setting [1] came out at 75 nM.
Still for that read-out and setting: then `Cc1cc(Nc2nccn3c(-c4ccc(OC(F)F)cc4)cnc23)ccc1C(=O)N1CCC(C(=O)NCC2CN(S(C)(=O)=O)C2)CC1` [Example 306, 1-[4-[[3-[4-(difluoromethoxy)phenyl]imi-dazo[1,2-a]pyrazin-8-yl]amino]-2-methylbenzoyl]-N-[(1-methylsulfonylazetidin-3-yl)methyl]piperidine-4-carboxamide], with 95 nM.
